Data on six compounds can be found in ChEMBL document CHEMBL3124830, “Hepatitis C virus translation inhibitors targeting the internal ribosomal entry site” (J Med Chem, 2014).

Assay [1] in a line: Binding affinity to Hepatitis C virus genotype 1b IRES RNA subdomain 2a assessed as conformational change by cyanine dye-based FRET assay. Set-up: species or system Hepatitis C virus subtype 1b.
The test system of assay [2] is Hepatitis C virus. In words: Antiviral activity against Hepatitis C virus infected in Huh-7 cells assessed as inhibition of HCV replicon by replicon assay. It is filed as functional, organism-based, Hepacivirus hominis. For orientation: In antiviral work, replicon cells carry a viral genome segment that copies itself.
Assay [3] relates to Internal ribosome entry site (IRES). In words: Binding affinity to Hepatitis C virus IRES RNA subdomain 2a by mass spectrometry assay. Set-up: species or system Hepacivirus hominis.
For assay [4] the test system is unchanged. In words: Inhibition of Hepatitis C virus IRES RNA-driven translation. The settings on record: Hepacivirus hominis.
For assay [5], the system named is Hepatitis C virus. Description: Antiviral activity against Hepatitis C virus infected in Huh-7 cells assessed as inhibition of HCV replicon at 10 uM by replicon assay. It is filed as functional, Hepacivirus hominis.

The term EC50 denotes the concentration that produces a half-maximal response. The term Kd denotes the equilibrium constant for the complex coming apart. As usually defined, the IC50 is the concentration that gives 50% inhibition. Low readings indicate greater potency in that assay, high ones weaker potency in that assay. Usually inhibition stands for the drop in the measured response relative to a control, in per cent.

As to `CN(C)CCCn1c(N)nc2ccc3c(c21)CC(CN(C)C)CO3` (stereo unspecified), the EC50 in assay [1] was 3.4 µM; in the assay with Hepatitis C virus [2] it was 2.8 µM. The compound further had a dissociation constant (Kd) in assay [3] of 0.86 µM. For the compound `CN(C)CC1COc2ccc3nc4n(c3c2C1)CC(CN(C)C)CN4` (stereo unspecified), the results for the EC50 (in assay [1]; in the assay with Hepatitis C virus [2]) were 0.6 µM and 4 µM, respectively. `Cc1cc(C)nc(/N=C(\N)NCCc2ccccc2)n1` returned an IC50 in assay [4] of 9.6 µM. Same read-out and setting: the figure for `Cc1cc2nc3ccc(N(C)C)cc3nc2cc1N` is 0.08 µM. Take `CC(=O)c1ccc(C(=O)N[C@@H](CCCCN)C(=O)N2C[C@H](N)C[C@H](N)C2)cc1`: the inhibition at 10 µM in the assay on Hepatitis C virus [5] was 75%. Besides, the EC50 in assay [1] stood at 6.3 µM. Turning to `CN(C)CCCn1c(N)nc2ccccc21`, the EC50 in assay [1] turned out to be 50 µM. In addition, in assay [3], the Kd is 100 µM.
